Experimental data published in PubChem BioAssay AID1963853 (Molecular Pharmacology Branch, DTP, NCI, 2024).

Test system: 266295-075-R-J1-PDC spheroid viability
Assay: Anticancer human tumor 266295-075-R-J1-PDC patient-derived head and neck squamous carcinoma cell line growth inhibition [POLQ]
Details: spheroids with HUVEC and MSC; for IC50: curve of first compound; for viability, T/C: stronger effect = lower value
Method in brief: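 Three-cell-type spheroids modelling solid tumor plus stroma served as the readout system; POL inhibitors were tested individually and in combination, concentration ranges set by clinical Cmax where known.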
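Note: spheroids exposed to compounds for seven days before readout.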

CC(=O)O[C@H]1C(=O)[C@@]2(C)[C@H]([C@H](OC(=O)c3ccccc3)[C@]3(O)C[C@H](OC(=O)[C@H](O)[C@@H](NC(=O)c4ccccc4)c4ccccc4)C(C)=C1C3(C)C)[C@]1(OC(C)=O)CO[C@@H]1C[C@@H]2O + Cc1cccc(N(C)C(=O)C2C(O)CCN2c2nc(C)cc(C(F)(F)F)c2C#N)c1
IC50 (second compound 0.0316 µM): > 3 µM | IC50 (second compound 0.1 µM): > 3 µM | IC50 (second compound 0.316 µM): > 3 µM | IC50 (second compound 1 µM): > 3 µM | IC50 (second compound 3.16 µM): > 3 µM | IC50 (second compound 10 µM): > 3 µM | viability, T/C (second compound 0.0316 µM, first compound 0.00949 µM): 71.9% | viability, T/C (second compound 0.0316 µM, first compound 0.03 µM): 58.7% | viability, T/C (second compound 0.0316 µM, first compound 0.0949 µM): 62.5% | viability, T/C (second compound 0.0316 µM, first compound 0.3 µM): 80.5% | viability, T/C (second compound 0.0316 µM, first compound 0.949 µM): 78.7% | viability, T/C (second compound 0.0316 µM, first compound 3 µM): 60% | viability, T/C (second compound 0.1 µM, first compound 0.00949 µM): 71.7% | viability, T/C (second compound 0.1 µM, first compound 0.03 µM): 71% | viability, T/C (second compound 0.1 µM, first compound 0.0949 µM): 56.9% | viability, T/C (second compound 0.1 µM, first compound 0.3 µM): 74.7% | viability, T/C (second compound 0.1 µM, first compound 0.949 µM): 83.8% | viability, T/C (second compound 0.1 µM, first compound 3 µM): 51.8% | viability, T/C (second compound 0.316 µM, first compound 0.00949 µM): 100% | viability, T/C (second compound 0.316 µM, first compound 0.03 µM): 65.9% | viability, T/C (second compound 0.316 µM, first compound 0.0949 µM): 64% | viability, T/C (second compound 0.316 µM, first compound 0.3 µM): 69.2% | viability, T/C (second compound 0.316 µM, first compound 0.949 µM): 71% | viability, T/C (second compound 0.316 µM, first compound 3 µM): 55.4% | viability, T/C (second compound 1 µM, first compound 0.00949 µM): 70.8% | viability, T/C (second compound 1 µM, first compound 0.03 µM): 56.4% | viability, T/C (second compound 1 µM, first compound 0.0949 µM): 79.4% | viability, T/C (second compound 1 µM, first compound 0.3 µM): 68% | viability, T/C (second compound 1 µM, first compound 0.949 µM): 78.2% | viability, T/C (second compound 1 µM, first compound 3 µM): 62.7% | viability, T/C (second compound 3.16 µM, first compound 0.00949 µM): 93% | viability, T/C (second compound 3.16 µM, first compound 0.03 µM): 60.2% | viability, T/C (second compound 3.16 µM, first compound 0.0949 µM): 73.1% | viability, T/C (second compound 3.16 µM, first compound 0.3 µM): 69.1% | viability, T/C (second compound 3.16 µM, first compound 0.949 µM): 81.5% | viability, T/C (second compound 3.16 µM, first compound 3 µM): 61.9% | viability, T/C (second compound 10 µM, first compound 0.00949 µM): 83.8% | viability, T/C (second compound 10 µM, first compound 0.03 µM): 52.4% | viability, T/C (second compound 10 µM, first compound 0.0949 µM): 60.9% | viability, T/C (second compound 10 µM, first compound 0.3 µM): 68.1% | viability, T/C (second compound 10 µM, first compound 0.949 µM): 72.4% | viability, T/C (second compound 10 µM, first compound 3 µM): 62.8%

COc1cc(C2c3cc4c(cc3C(OC3OC5COC(C)OC5C(O)C3O)C3COC(=O)C23)OCO4)cc(OC)c1O (centres undefined) + Cc1cccc(N(C)C(=O)C2C(O)CCN2c2nc(C)cc(C(F)(F)F)c2C#N)c1
IC50 (second compound 0.0316 µM): > 10 µM | IC50 (second compound 0.1 µM): > 10 µM | IC50 (second compound 0.316 µM): > 10 µM | IC50 (second compound 1 µM): > 10 µM | IC50 (second compound 3.16 µM): > 10 µM | IC50 (second compound 10 µM): > 10 µM | viability, T/C (second compound 0.0316 µM, first compound 0.0316 µM): 83.3% | viability, T/C (second compound 0.0316 µM, first compound 0.1 µM): 75.2% | viability, T/C (second compound 0.0316 µM, first compound 0.316 µM): 82.2% | viability, T/C (second compound 0.0316 µM, first compound 1 µM): 75.8% | viability, T/C (second compound 0.0316 µM, first compound 3.16 µM): 75.3% | viability, T/C (second compound 0.0316 µM, first compound 10 µM): 64.9% | viability, T/C (second compound 0.1 µM, first compound 0.0316 µM): 78.8% | viability, T/C (second compound 0.1 µM, first compound 0.1 µM): 82.2% | viability, T/C (second compound 0.1 µM, first compound 0.316 µM): 72.5% | viability, T/C (second compound 0.1 µM, first compound 1 µM): 69.4% | viability, T/C (second compound 0.1 µM, first compound 3.16 µM): 70.7% | viability, T/C (second compound 0.1 µM, first compound 10 µM): 70.2% | viability, T/C (second compound 0.316 µM, first compound 0.0316 µM): 96.5% | viability, T/C (second compound 0.316 µM, first compound 0.1 µM): 73.1% | viability, T/C (second compound 0.316 µM, first compound 0.316 µM): 73.9% | viability, T/C (second compound 0.316 µM, first compound 1 µM): 76.3% | viability, T/C (second compound 0.316 µM, first compound 3.16 µM): 73.1% | viability, T/C (second compound 0.316 µM, first compound 10 µM): 57.9% | viability, T/C (second compound 1 µM, first compound 0.0316 µM): 86.1% | viability, T/C (second compound 1 µM, first compound 0.1 µM): 95.4% | viability, T/C (second compound 1 µM, first compound 0.316 µM): 82% | viability, T/C (second compound 1 µM, first compound 1 µM): 86.2% | viability, T/C (second compound 1 µM, first compound 3.16 µM): 73.4% | viability, T/C (second compound 1 µM, first compound 10 µM): 68.1% | viability, T/C (second compound 3.16 µM, first compound 0.0316 µM): 85.8% | viability, T/C (second compound 3.16 µM, first compound 0.1 µM): 76.2% | viability, T/C (second compound 3.16 µM, first compound 0.316 µM): 77.5% | viability, T/C (second compound 3.16 µM, first compound 1 µM): 68.5% | viability, T/C (second compound 3.16 µM, first compound 3.16 µM): 68.1% | viability, T/C (second compound 3.16 µM, first compound 10 µM): 62.8% | viability, T/C (second compound 10 µM, first compound 0.0316 µM): 101% | viability, T/C (second compound 10 µM, first compound 0.1 µM): 72.5% | viability, T/C (second compound 10 µM, first compound 0.316 µM): 69.2% | viability, T/C (second compound 10 µM, first compound 1 µM): 72.2% | viability, T/C (second compound 10 µM, first compound 3.16 µM): 72.5% | viability, T/C (second compound 10 µM, first compound 10 µM): 60%
